Article PMC4860824, “Targeting the γ-/β-secretase interaction reduces β-amyloid generation and ameliorates Alzheimer’s disease-related pathogenesis” (Cell Discovery, 2015)

Biological target: T1, presenilin-1 (PS1) (Homo sapiens, UniProt P49768)
T1 construct: gene PSEN1; PS1-NTF
Assay: dose-dependent competition with XYT1032 photo-affinity labelling in HEK293T cells ([…])
Type: cell-based

C=C1CCC2(C(=O)O)CC[C@]3(C)C(=CC[C@H]4C3(C)CC[C@H]3C(C)(C)[C@H](O)CC[C@@]34C)[C@@H]2C1 (stereo partly drawn) [3AA, 3-α-Akebonoic acid]
dose-dependent competition with XYT1032 photo-affinity labelling in HEK293T cell: in the presence of XYT472B or 3AA, the labeling of PS1-NTF was decreased dose dependently
